Structures can show the parent of a compound that is named as a salt. Where two headings read alike, the source gives them in different places.
How the values were obtained:
[1] = system: K1 strain, a drug resistant strain of Plasmodium falciparum; assay: In vitro antimalarial assay (p-LDH, Malstat), K1 strain; type: cell-based; details: read-out: Antimalarial activity (IC50 value), Strain K1
From the text: (§1) For the evaluation of the antimalarial activity of the compound of the present invention, K1 strain, a drug resistant strain of Plasmodium falciparum, and FCR3 strain, a drug sensitive strain thereof, which were generous gift from Professor Kiyoshi Kita of the Graduate School of Medicine and Faculty of Medicine, the University of Tokyo, were used to measure the in vitro antimalarial activity of the compound against those Plasmodium species according to the method established by Otoguro et al. (Otoguro, K., Kohana, A., Manabe, C., Ishiyama, A., Ui, H., Shiomi, K., Yamada, H. & Omura, S.: Potent antimalarial activity of polyether antibiotic, X-206. J. Antibiot., 54: 658-663, (2001)).
(§2) The parasites were grown based on a slightly modified method from the original method reported by Trager and Jensen (Trager, W. and Jensen, J.: Human malaria parasites in continuous culture, Science, 193: 673-677, (1976)), and those which were maintained and sub-cultured by the method were used. More specifically, in a culture dish, erythrocytes infected with the protozoa, which had been sub-cultured using a RPMI 1640 medium to which 10% human plasma had been added and fresh human erythrocytes, were diluted (hematocrit value: 2 to 5%, parasitaemia: 0.25 to 1%), and were cultured at 37° C. in a mixed gas of 3% O2-4% CO2-93% N2, and continuously cultured while changing the medium and adding fresh erythrocytes at 2- or 3-day intervals.
(§3) A drug susceptibility test was performed by modifying the method established by Desjardins et al. (Desjardins, R. E., Canfield, C. J., Haynes, D. E. and Chulay, J. D.: Quantitative assessment of antimalarial activity in vitro by a semiautomated microdilution technique. Antimicrob. Agents Chemother., 16: 710-718 (1979)). More specifically, 190 μL of a suspension of protozoa which had been precultured (hematocrit value: 2%, parasitaemia: 0.5 or 1%) and 10 μL of a solution of a test compound (5% DMSO solution) serially diluted so that the final concentration was 12.5 to 0.0001 μM were put in each well of a 96-well plate, and after mixing, the same was cultured for 72 hours in the above mixed gas.
(§4) For the measurement of the growth of protozoa, the method established by Makler (Makler, M. T., Rise, J. M., Williams, J. A., Bancroft, J. E., Piper, R. C., Gibbins, B. L. and Hinrichs, D. J.: Parasite lactate dehydrogenase as an Assay for Plasmodium falciparum drug sensitivity, Am. J. Med. Hyg., 48: 739-741 (1993)) was modified to colorimetrically determine parasite lactate dehydrogenase (p-LDH) using Malstat reagent (Flow Inc., USA).
(§5) More specifically, 72 hours after the culture, the 96-well plate was directly frozen at −20° C. for 18 hours and melted at 37° C. to hemolyze the protozoan-infected erythrocytes and destroy the protozoa to prepare a crude enzyme solution. 100 μL of Malstat reagent and 20 μL of the crude enzyme solution were added to and mixed in each well of another 96-well plate, and after reacting for 15 minutes at room temperature, 20 μL of a nitroblue tetrazolium 2 mg/mL phenazine ethosulfate 0.1 mg/mL=1:1 solution was added to the respective wells, and reaction was performed in dark conditions at room temperature for 2 hours.
(§6) The absorbance of the blue formazan product formed by the reaction was measured at a measurement wavelength of 655 nm by using a microplate reader (Labsystems, Finland) to colorimetrically determine the growth of the protozoa. The 50% growth inhibitory concentration for the protozoa of the compound (IC50 value) was determined based on the concentration-response curve of the compound.

[2] = system: FCR3 strain, a drug sensitive strain of Plasmodium falciparum; assay: In vitro antimalarial assay (p-LDH, Malstat), FCR3 strain; type: cell-based; details: P. falciparum FCR3 (drug sensitive), 72 h culture, p-LDH readout, read-out: Antimalarial activity (IC50 value), Strain FCR3
From the text: as §1, §2, §3, §4, §5, §6

[3] = P. falciparum K1 (drug resistant), 72 h culture, p-LDH readout

Row | Structure (SMILES) | IC50 [1, 3] | IC50 [2] | IC50 ([1]; K1, 72 h)
1 | COc1ccc(Nc2nc(Nc3ccn4ccnc4c3)cc(N3CCOCC3)n2)cn1 [Example 1, N4-(Imidazo[1,2-a]pyridin-7-yl)-N2-(6-methoxypyridin-3-yl)-6-morpholinopyrimidine-2,4-diamine] | < 100 nM | < 100 nM | 
2 | Cc1cc(C)nc(Nc2nc(Nc3ccn4ccnc4c3)cc(N3CCOCC3)n2)c1 [Example 2, N2-(4,6-dimethylpyridin-2-yl)-N4-(imidazo[1,2-a]pyridin-7-yl)-6-morpholinopyrimidine-2,4-diamine] | < 100 nM | < 100 nM | 
3 | c1cc(Nc2nc(Nc3ccn4ccnc4c3)cc(N3CCOCC3)n2)ccn1 [Example 3, N4-(imidazo[1,2-a]pyridin-7-yl)-6-morpholino-N2-(pyridin-4-yl)pyrimidine-2,4-diamine dihydrochloride] |  |  | 1000 to 10000 nM
4 | c1cncc(Nc2nc(Nc3ccn4ccnc4c3)cc(N3CCOCC3)n2)c1 [Example 4, N4-(Imidazo[1,2-a]pyridin-7-yl)-6-morpholino-N2-(pyridin-3-yl)pyrimidine-2,4-diamine] | 100 to 1000 nM | 100 to 1000 nM | 
5 | COc1ncccc1Nc1nc(Nc2ccn3ccnc3c2)cc(N2CCOCC2)n1 [Example 5, N4-(Imidazo[1,2-a]pyridin-7-yl)-N2-(2-methoxypyridin-3-yl)-6-morpholinopyrimidine-2,4-diamine] | 1000 to 10000 nM | 1000 to 10000 nM | 
6 | Fc1cncc(Nc2nc(Nc3ccn4ccnc4c3)cc(N3CCOCC3)n2)c1 [Example 6, N2-(5-Fluoropyridin-3-yl)-N 4-(imidazo[1,2-a]pyridin-7-yl)-6-morpholinopyrimidine-2,4-diamine] | 100 to 1000 nM | 100 to 1000 nM | 
7 | CCOc1ccc(Nc2nc(Nc3ccn4ccnc4c3)cc(N3CCOCC3)n2)cn1 [Example 7, N2-(6-Ethoxypyridin-3-yl)-N4-(imidazo[1,2-a]pyridin-7-yl)-6-morpholinopyrimidine-2,4-diamine] | < 100 nM | < 100 nM | 
8 | c1ncc(Nc2nc(Nc3ccn4ccnc4c3)cc(N3CCOCC3)n2)cn1 [Example 8, N4-(Imidazo[1,2-a]pyridin-7-yl)-6-morpholino-N2-(pyrimidin-5-yl)pyrimidine-2,4-diamine] | 1000 to 10000 nM | 100 to 1000 nM | 
9 | Cc1cccnc1Nc1nc(Nc2ccn3ccnc3c2)cc(N2CCOCC2)n1 [Example 9, N4-(Imidazo[1,2-a]pyridin-7-yl)-N2-(3-methylpyridin-2-yl)-6-morpholinopyrimidine-2,4-diamine] | 100 to 1000 nM | < 100 nM | 
10 | Cc1cccc(Nc2nc(Nc3ccn4ccnc4c3)cc(N3CCOCC3)n2)n1 [Example 10, N4-(Imidazo[1,2-a]pyridin-7-yl)-N2-(6-methylpyridin-2-yl)-6-morpholinopyrimidine-2,4-diamine] | < 100 nM | < 100 nM | 
11 | Fc1ncccc1Nc1nc(Nc2ccn3ccnc3c2)cc(N2CCOCC2)n1 [Example 11, N2-(2-Fluoropyridin-3-yl)-N4-(imidazo[1,2-a]pyridin-7-yl)-6-morpholinopyrimidine-2,4-diamine] | 1000 to 10000 nM | 100 to 1000 nM | 
12 | Fc1ccc(Nc2nc(Nc3ccn4ccnc4c3)cc(N3CCOCC3)n2)cn1 [Example 12, N2-(6-Fluoropyridin-3-yl)-N4-(imidazo[1,2-a]pyridin-7-yl)-6-morpholinopyrimidine-2,4-diamine] | 100 to 1000 nM | 100 to 1000 nM | 
13 | Fc1ccc(Nc2nc(Nc3ccn4ccnc4c3)cc(N3CCOCC3)n2)nc1 [Example 13, N2-(5-Fluoropyridin-2-yl)-N4-(imidazo[1,2-a]pyridin-7-yl)-6-morpholinopyrimidine-2,4-diamine] | 100 to 1000 nM | < 100 nM | 
14 | Fc1cccc(Nc2nc(Nc3ccn4ccnc4c3)cc(N3CCOCC3)n2)n1 [Example 14, N2-(6-Fluoropyridin-2-yl)-N4-(imidazo[1,2-a]pyridin-7-yl)-6-morpholinopyrimidine-2,4-diamine] | 1000 to 10000 nM | 100 to 1000 nM | 
15 | CC(C)Oc1ccc(Nc2nc(Nc3ccn4ccnc4c3)cc(N3CCOCC3)n2)cn1 [Example 15, N4-(Imidazo[1,2-a]pyridin-7-yl)-N2-(6-isopropoxypyridin-3-yl)-6-morpholinopyrimidine-2,4-diamine] | < 100 nM | < 100 nM | 

Further lines, with some results ahead:

Row | IC50 [1, 3] | IC50 [2] | Structure (SMILES) | IC50 ([1]; K1, 72 h)
16 | < 100 nM | < 100 nM | Cc1cc(C)nc(Nc2nc(Nc3ccn4ccnc4c3)cc(N3C[C@@H](C)[C@H](C)C3)n2)c1 (relative stereo) [Example 193, N2-(4,6-dimethylpyridin-2-yl)-6-[trans-3,4-dimethylpyrrolidin-1-yl]-N4-(imidazo[1,2-a]pyridin-7-yl)pyrimidine-2,4-diamine] | 
17 | 1000 to 10000 nM |  | c1cnc(Nc2nc(Nc3ccn4ccnc4c3)cc(N3CCOCC3)n2)nc1 [Example 16, N4-(Imidazo[1,2-a]pyridin-7-yl)-6-morpholino-N2-(pyrimidin-2-yl)pyrimidine-2,4-diamine] | 
18 | < 100 nM | < 100 nM | Cc1ccnc(Nc2nc(Nc3ccn4ccnc4c3)cc(N3CCOCC3)n2)c1 [Example 17, N4-(Imidazo[1,2-a]pyridin-7-yl)-N2-(4-methylpyridin-2-yl)-6-morpholinopyrimidine-2,4-diamine] | 
19 | < 100 nM | < 100 nM | Cc1ccc(Nc2nc(Nc3ccn4ccnc4c3)cc(N3CCOCC3)n2)nc1 [Example 18, N4-(Imidazo[1,2-a]pyridin-7-yl)-N2-(5-methylpyridin-2-yl)-6-morpholinopyrimidine-2,4-diamine] | 
20 | 100 to 1000 nM | 100 to 1000 nM | COc1cncc(Nc2nc(Nc3ccn4ccnc4c3)cc(N3CCOCC3)n2)c1 [Example 19, N4-(Imidazo[1,2-a]pyridin-7-yl)-N2-(5-methoxypyridin-3-yl)-6-morpholinopyrimidine-2,4-diamine] | 
21 | 100 to 1000 nM | 100 to 1000 nM | Fc1cccnc1Nc1nc(Nc2ccn3ccnc3c2)cc(N2CCOCC2)n1 [Example 20, N2-(3-Fluoropyridin-2-yl)-N4-(imidazo[1,2-a]pyridin-7-yl)-6-morpholinopyrimidine-2,4-diamine] | 
22 | 100 to 1000 nM | 100 to 1000 nM | Fc1ccnc(Nc2nc(Nc3ccn4ccnc4c3)cc(N3CCOCC3)n2)c1 [Example 21, N2-(4-Fluoropyridin-2-yl)-N4-(imidazo[1,2-a]pyridin-7-yl)-6-morpholinopyrimidine-2,4-diamine] | 
23 | 1000 to 10000 nM |  | Oc1ccc(Nc2nc(Nc3ccn4ccnc4c3)cc(N3CCOCC3)n2)cn1 [Example 24, 5-(4-(Imidazo[1,2-a]pyridin-7-ylamino)-6-morpholinopyrimidin-2-ylamino)pyridin-2-ol] | 
24 | 1000 to 10000 nM |  | CCOc1ccc(Nc2nc(Nc3ccn4ccnc4c3)cc(N3CCN(C)[C@@H](C)C3)n2)cn1 [Example 52, (S)-6-(3,4-Dimethylpiperazin-1-yl)-N2-(6-ethoxypyridin-3-yl)-N4-(imidazo[1,2-a]pyridin-7-yl) pyrimidine-2,4-diamine] | 
25 | 1000 to 10000 nM |  | CC(C)Oc1ccc(Nc2nc(Nc3ccn4ccnc4c3)cc(N3CCN(C)[C@@H](C)C3)n2)cn1 [Example 56, (S)-6-(3,4-dimethylpiperazin-1-yl)-N4-(imidazo[1,2-a]pyridin-7-yl)-N2-(6-isopropoxypyridin-3-yl)pyrimidine-2,4-diamine] | 
26 | 1000 to 10000 nM |  | CC(C)Oc1ccc(Nc2nc(Nc3ccn4ccnc4c3)cc(N3CCN(C)CC3)n2)cn1 [Example 59, N4-(imidazo[1,2-a]pyridin-7-yl)-N2-(6-isopropoxypyridin-3-yl)-6-(4-methylpiperazin-1-yl) pyrimidine-2,4-diamine] | 
27 | 1000 to 10000 nM |  | C=CCOc1ccc(Nc2nc(Nc3ccn4ccnc4c3)cc(N3CCOCC3)n2)cn1 [Example 76, N2-(6-(allyloxy)pyridin-3-yl)-N4-(imidazo[1,2-a]pyridin-7-yl)-6-morpholinopyrimidine-2,4-diamine] | 

From patent US10538521B2, “Pyrimidine derivative having antimalarial activity” (CARNA BIOSCIENCES, INC., priority 2016, dated 2020)
